molecular target: T1, human SLC6A19 and TMEM27 (Homo sapiens, UniProt Q695T7); test: 13C6,15N-isoleucine uptake in CHO cells with doxycycline-inducible expression of human SLC6A19 and TMEM27, RapidFire mass spectrometry (Example B-2); assay type: cell-based; settings: read-out: SLC6A19_RapidFire Uptake Assay IC50
T1 construct: expressed in transfected cells
T1 sequence (Q695T7 1-634): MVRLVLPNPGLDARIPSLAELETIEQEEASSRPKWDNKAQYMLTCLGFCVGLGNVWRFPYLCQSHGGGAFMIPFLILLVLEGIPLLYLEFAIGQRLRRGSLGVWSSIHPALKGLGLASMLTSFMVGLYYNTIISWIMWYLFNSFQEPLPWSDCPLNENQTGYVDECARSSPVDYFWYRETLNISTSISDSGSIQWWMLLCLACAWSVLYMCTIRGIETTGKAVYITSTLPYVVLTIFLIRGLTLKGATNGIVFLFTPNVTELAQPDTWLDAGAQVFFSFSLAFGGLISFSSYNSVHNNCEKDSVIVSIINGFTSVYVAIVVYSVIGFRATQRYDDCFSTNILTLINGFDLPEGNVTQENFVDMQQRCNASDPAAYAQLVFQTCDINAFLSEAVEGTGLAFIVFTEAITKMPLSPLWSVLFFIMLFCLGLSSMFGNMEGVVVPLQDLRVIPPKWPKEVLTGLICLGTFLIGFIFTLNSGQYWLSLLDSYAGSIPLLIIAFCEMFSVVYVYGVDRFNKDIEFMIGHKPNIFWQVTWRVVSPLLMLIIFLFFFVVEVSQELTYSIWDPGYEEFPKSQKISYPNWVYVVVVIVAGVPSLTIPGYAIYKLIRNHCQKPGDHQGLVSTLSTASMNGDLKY
T1 sequence (Q9HBJ8 15-222 partner): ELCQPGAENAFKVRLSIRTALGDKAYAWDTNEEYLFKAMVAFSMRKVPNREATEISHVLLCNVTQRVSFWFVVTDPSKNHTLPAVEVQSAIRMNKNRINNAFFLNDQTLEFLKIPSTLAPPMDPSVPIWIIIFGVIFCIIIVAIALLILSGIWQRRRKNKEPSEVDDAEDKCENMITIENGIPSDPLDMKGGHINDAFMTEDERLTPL
Method: Assay ready vials of CHO cells with doxycycline inducible expression of human SLC6A19 and TMEM27 were thawed, plated in T175 flasks containing DMEM/F12 media, 10% FBS, 1% Penicillin-Streptomycin, 1× UltraGlutamate, 1 mM Sodium Pyruvate, Sodium Bicarbonate (7.5 mL of 7.5% solution in 500 mL media final), 5 μg/mL Blasticidin, 150 μg/mL Hygromycin B Gold, and 500 μg/mL G418, and incubated (humidified, 37° C. with 5% CO2) for 48 hours. Media was then removed, flasks were washed with 20 mL of DPBS, and 5 mL of TrypLE™ Express was added to each flask to initiate cell dissociation. After 5 minutes, 10 mL of cell culture media was added to each flask and mixed. The cell suspension was collected and centrifuged for 5 minutes at 200×g. The supernatant was removed, and the pellet was resuspended in 10 mL of cell culture media. Resuspended cells were counted using a Vi-Cell. 30 μL/well (20,000 cells/well) of cell suspension was added to Poly-D-Lysine 384-well black/clear plates. Plates were incubated (humidified, 37° C. with 5% CO2) for 24 hours. To induce expression of human SLC6A19 and TMEM27, 10 μL of assay culture media containing 4 μg/mL doxycycline was added to each well. Assay plates were then incubated (humidified, 37° C. with 5% CO2) overnight. After incubation, the media was removed, and wells were washed 3 times with 40 μL of warmed DPBS. Next, 10 μL of warmed assay buffer (137 mM NaCl, 5 mM KCl, 1 mM CaCl2), 1 mM MgCl2, 10 mM HEPES, 10 mM glucose, pH 7.2) was added to each well. 10 μL/well of test compound or positive control compound to define 0% activity (i.e., 100% inhibition), was then added into each well. All compounds were plated in a duplicate 10-point dilution series that consisted of 2-fold dilutions. The plates were incubated (humidified, 37° C. with 5% C2) with compound for 20 minutes. Afterwards, 20 μL/well of 2 mM 13C6,15N-1-isoleucine was added to each well and plates were incubated again (humidified, 37° C. with 5% C02) for another 20 minutes. Assay buffer was then removed, and plates were washed. 70 μL/well of stop solution (75% acetonitrile, 25% HPLC grade water, 250 nM 1-leucine-1-13C (RapidFire standard)) was added to each well. The plates were sealed and then placed in a −20° C. freezer for 20 minutes. The plates were thawed at room temperature for 20 minutes and then centrifuge for 20 minutes at 3000 rpm. Using an ABSciex API4000 mass spectrometer, processed samples were loaded onto the graphitic carbon SPE-column. The time for aspiration, load/wash, elution and re-equilibration time was 600, 1500, 3000 and 500 milliseconds, respectively. Peak areas were calculated using RapidFire Integrator software.

| Structure (SMILES) | IC50 |
| --- | --- |
| CC1(C(=O)NCc2cc3ccc(OCc4ccno4)cc3[nH]2)CC1 [Compound 62, N-((6-(isoxazol-5-ylmethoxy)-1H-indol-2-yl)methyl)-1-methylcyclopropanecarboxamide] | 493 nM |
| CNC(=O)NCc1cc2ccc(OCc3ccon3)cc2[nH]1 [Compound 107, 1-((6-(isoxazol-3-ylmethoxy)-1H-indol-2-yl)methyl)-3-methylurea] | 5890 nM |
| O=C(NCc1cc2cc(Cl)c(OCc3ccon3)cc2[nH]1)N1CCCC1 [Compound 112, N-((5-chloro-6-(isoxazol-3-ylmethoxy)-1H-indol-2-yl)methyl)pyrrolidine-1-carboxamide] | 193 nM |
| CNC(=O)NCc1cc2cc(Cl)c(OCc3cncs3)cc2[nH]1 [Compound 109, 1-((5-chloro-6-(thiazol-5-ylmethoxy)-1H-indol-2-yl)methyl)-3-methylurea] | 515 nM |
| CNC(=O)NCc1cc2cc(Cl)c(OCc3ccon3)cc2[nH]1 [Compound 110, 1-((5-chloro-6-(isoxazol-3-ylmethoxy)-1H-indol-2-yl)methyl)-3-methylurea] | 464 nM |
| CC1(C(=O)NCc2cc3cc(Cl)c(OCc4cccnc4)cc3[nH]2)CC1 [Compound 39, N-((5-chloro-6-(pyridin-3-ylmethoxy)-1H-indol-2-yl)methyl)-1-methylcyclopropane-1-carboxamide] | 370 nM |
| CNC(=O)NCc1cc2ccc(OCc3cocn3)cc2[nH]1 [Compound 108, 1-methyl-3-((6-(oxazol-4-ylmethoxy)-1H-indol-2-yl)methyl)urea] | 5570 nM |
| CC1(C(=O)NCc2cc3ccc([C@@H]4C[C@H]4c4ccccc4)cc3[nH]2)CC1 (racemic) [Compound 154, trans-1-methyl-N-((6-(2-phenylcyclopropyl)-1H-indol-2-yl)methyl)cyclopropane-1-carboxamide] | 1360 nM |
| CC1(C(=O)NCc2cc3ccc(OCc4nccs4)cc3[nH]2)CC1 [Compound 43, 1-methyl-N-((6-(thiazol-2-ylmethoxy)-1H-indol-2-yl)methyl)cyclopropane-1-carboxamide] | 192 nM |
| CC1(C(=O)NCc2cc3ccc(NCc4ccccn4)cc3[nH]2)CC1 [Compound 4, 1-methyl-N-((6-((pyridin-2-ylmethyl)amino)-1H-indol-2-yl)methyl)cyclopropane-1-carboxamide] | 1830 nM |
| Cc1cccc(COc2cc3[nH]c(CNC(=O)C4(C)CC4)cc3cc2Cl)n1 [Compound 42, N-((5-chloro-6-((6-methylpyridin-2-yl)methoxy)-1H-indol-2-yl)methyl)-1-methylcyclopropane-1-carboxamide] | 1620 nM |
| CNC(=O)NCc1cc2cc(Cl)c(OCc3cocn3)cc2[nH]1 [Compound 111, 1-((5-chloro-6-(oxazol-4-ylmethoxy)-1H-indol-2-yl)methyl)-3-methylurea] | 586 nM |
| O=C(NCc1cc2ccc(OCc3cncs3)cc2[nH]1)N1CCCC1 [Compound 106, N-((6-(thiazol-5-ylmethoxy)-1H-indol-2-yl)methyl)pyrrolidine-1-carboxamide] | 613 nM |
| Cc1cc(CCc2ccc3cc(CNC(=O)C4(C)CC4)[nH]c3c2)no1 [Compound 77, 1-methyl-N-((6-(2-(5-methylisoxazol-3-yl)ethyl)-1H-indol-2-yl)methyl)cyclopropane-1-carboxamide] | 355 nM |
| O=C(NCc1cc2ccc(OCc3cocn3)cc2[nH]1)N1CCCC1 [Compound 105, N-((6-(oxazol-4-ylmethoxy)-1H-indol-2-yl)methyl)pyrrolidine-1-carboxamide] | 644 nM |
| O=C(NCc1cc2cc(Cl)c(OCc3cncs3)cc2[nH]1)N1CCCC1 [Compound 119, N-((5-chloro-6-(thiazol-5-ylmethoxy)-1H-indol-2-yl)methyl) pyrrolidine-1-carboxamide] | 485 nM |

Other lines, results leading:

| IC50 | Structure (SMILES) |
| --- | --- |
| 2080 nM | Cn1nnc(COc2ccc3cc(CNC(=O)C4(C)CC4)[nH]c3c2)n1 [Compound 174, 1-methyl-N-((6-((2-methyl-2H-tetrazol-5-yl)methoxy)-1H-indol-2-yl)methyl)cyclopropane-1-carboxamide] |
| 38 nM | Cc1cc(COc2cc3[nH]c(CNC(=O)C4(C)CC4)cc3cc2Cl)on1 [Compound 175, N-((5-chloro-6-((3-methylisoxazol-5-yl)methoxy)-1H-indol-2-yl)methyl)-1-methylcyclopropane-1-carboxamide] |
| 7440 nM | Cn1cc(COc2ccc3cc(CNC(=O)C4(C)CC4)[nH]c3c2)nn1 [Compound 168, 1-methyl-N-((6-((1-methyl-1H-1,2,3-triazol-4-yl)methoxy)-1H-indol-2-yl)methyl)cyclopropane-1-carboxamide] |
| 311 nM | Cc1c(CNC(=O)C2(C)CC2)[nH]c2cc(OCc3ccon3)ccc12 [Compound 155, N-((6-(isoxazol-3-ylmethoxy)-3-methyl-1H-indol-2-yl)methyl)-1-methylcyclopropane-1-carboxamide] |
| > 50000 nM | Cc1cc(Cc2ccc3cc(CNC(=O)C4(C)CC4)[nH]c3c2)no1 [Compound 160, 1-methyl-N-((6-((5-methylisoxazol-3-yl)methyl)-1H-indol-2-yl)methyl)cyclopropanecarboxamide] |
| 926 nM | Cn1ncc(COc2ccc3cc(CNC(=O)C4(C)CC4)[nH]c3c2)n1 [Compound 173, 1-methyl-N-((6-((2-methyl-2H-1,2,3-triazol-4-yl)methoxy)-1H-indol-2-yl)methyl)cyclopropane-1-carboxamide] |
| 2180 nM | Cc1nnc(COc2ccc3cc(CNC(=O)C4(C)CC4)[nH]c3c2)s1 [Compound 165, 1-methyl-N-((6-((5-methyl-1,3,4-thiadiazol-2-yl)methoxy)-1H-indol-2-yl)methyl)cyclopropane-1-carboxamide] |
| 1420 nM | Cc1nc(COc2ccc3cc(CNC(=O)C4(C)CC4)[nH]c3c2)cs1 [Compound 179, 1-methyl-N-((6-((2-methylthiazol-4-yl)methoxy)-1H-indol-2-yl)methyl)cyclopropane-1-carboxamide] |
| 178 nM | CC1(C(=O)NCc2cc3ccc(OCC4CCCC4)cc3[nH]2)CC1 [Compound 187, N-((6-(cyclopentylmethoxy)-1H-indol-2-yl)methyl)-1-methylcyclopropane-1-carboxamide] |
| 91 nM | Cc1nc(COc2cc3[nH]c(CNC(=O)C4(C)CC4)cc3cc2Cl)co1 [Compound 182, N-((5-chloro-6-((2-methyloxazol-4-yl)methoxy)-1H-indol-2-yl)methyl)-1-methylcyclopropane-1-carboxamide] |
| 39 nM | CC1(C(=O)NCc2cc3cc(Cl)c(OCc4cnsn4)cc3[nH]2)CC1 [Compound 183, N-((6-((1,2,5-thiadiazol-3-yl)methoxy)-5-chloro-1H-indol-2-yl)methyl)-1-methylcyclopropane-1-carboxamide] |
| 187 nM | CC1(C(=O)NCc2cc3ccc(OCc4csnn4)cc3[nH]2)CC1 [Compound 170, N-((6-((1,2,3-thiadiazol-4-yl)methoxy)-1H-indol-2-yl)methyl)-1-methylcyclopropane-1-carboxamide] |
